Measurements published in patent publication US5093045A, “Biologically active lipids binding membrane receptors” (priority 1990, dated 1992).
Several values for one entry are separate records, joined by “and”; a condition that tells them apart may be missing. Equal values may be shown once. Values belong to the compound of their own block, whether it stands above or below them.

Assays:
[1] = tested on: phorboid receptor (PDBu receptor) of murine brain membranous fraction (BMF); test: PDBu binding inhibiting activity (PBIA): inhibition of 3H-PDBu binding to murine brain membranous fraction; parameters: species or system mouse
Procedure: Pooled murine brains from approximately 2 month old mice, NFS strain, were minced with scissors, suspended in 1 mM triethanolamine-HCl, pH 7.4, and disrupted with a polytron P-10 (Brinkman). This and all subsequent steps were performed at 4° C. The homogenate was centrifuged for 10 minutes at 1700xg; the supernate was removed and centrifuged for 60 minutes at 105,000xg. The resulting pellet was suspended in one-fourth of the initial volume of PBS. The suspension was aliquoted into a small volume and stored at -70° C.
The binding of ^3 H-PDBu to BMF or soluble receptors was performed in duplicate in 12×75mm disposable glass tubes (Kimax) both in the absence and presence of 20μg/ml unlabeled PDBu; the binding mixture contained 5ng of ^3 H-PDBu (4×10^4 cpm), 0.2% final concentration of DMSO and BMF (50μg protein) or soluble receptors in a total volume of 0.25 ml binding buffer (BB) consisting of Dulbecco's […] (DMEM) containing bovine serum albumin (BSA lmg/ml) and N,N,-bis-(2-hydroxyethyl)-2-amino-ethane sulfonic acid (BES, 5mM), adjusted to pH 6.8. After incubation for 30 minutes at 23° C. the tubes were chilled, 0.5 ml cold 4% calf serum (Colorado Serum Co., Denver, CO) and 0.7 ml cold polyethylene glycol (PEG 6,000) in 1 mM Tris-HCl, pH 7.4 was added to each tube, the contents vortexed, the tubes allowed to stand for 15 min at 4° C., and centrifuged for 10 min at 1500xg at 4° C. The supernatant solution was carefully aspirated off, the pellet suspended in 2.5 ml of cold 10% PEG in 0.1 M Tris-HCl, pH 7.4, containing 0.5% SDS and 1 mM EDTA). The mixture was transferred to counting vials and 10 ml of Aquassure (NEN) was added to each vial. The vials were vigorously shaken and radioactivity determined using a Beckman beta counter.
The loss of the ability of ^3 H-PDBu to bind to receptors in the presence of ligand was used as the measure of inhibiting activity. PDBu binding inhibition assays were performed as described above, except the test materials were added to the reaction mixture and binding measured as described above.
The PBIA of ligand was equated with that of PDBu by the use of the term ng equivalent calculated from a plot of [^3 H]PDBu bound versus the log molar concentration for several biologically active phorbol esters (2). The curve corresponding to PDBu inhibition of PDBu binding was used by reading the molar concentration corresponding to the percent of control binding of ^3 H]PDBu in the presence of ligand to obtain the units ng PDBu equivalent of ligand.

[2] = tested on: arachidonic acid cascade in mink lung cells; test: Stimulation of arachidonic acid cascade: release of radioactivity from cells prelabeled with arachidonic acid; format: cell-based; conditions: cells previously labeled with radioactive arachidonic acid
Description: The release of radioactivity into the medium from cells previously labeled with radioactive arachidonic was used as a measure of activation of eicosanoids pathway. […] PBIL from all sources inhibited PDBu-receptor interaction.

SMILES: CCCCCCCCCCCCCCCC(=O)OCC(O)COC(=O)CCCCCCCCCCCCCCC [1,3-Dipalmitin]
- Inhibition (%) of binding of PDBu to its receptor ([1]; concentration 0.8 nM): -12%

SMILES: CCCCC/C=C\C/C=C\C/C=C\C/C=C\CCCC(=O)OCC(O)CO (centres unmarked) [1-Monoarachidonin]
- Stimulation of arachidonic acid cascade (release of radioactivity into the medium) [2]: stimulate the arachidonic acid cascade
- Competition with phorbol dibutyrate for its receptor (qualitative) [1]: compete with phorbol dibutyrate for its receptor
- Inhibition (%) of binding of PDBu to its receptor ([1]; concentration 0.2 nM): 41%
- Inhibition (%) of binding of PDBu to its receptor ([1]; concentration 0.4 nM): 91%
- Inhibition (%) of binding of PDBu to its receptor ([1]; concentration 0.8 nM): 95%

SMILES: CCCCCCCC/C=C\CCCCCCCC(=O)OCC(O)COC(=O)CCCCCCC/C=C\CCCCCCCC [1,3-Diolein]
- Inhibition (%) of binding of PDBu to its receptor ([1]; concentration 0.8 nM): 11%

SMILES: CCCCCCCCCCCCCC(=O)OCC(O)COC(=O)CCCCCCCCCCCCC [1,3-Dimyritin]
- Inhibition (%) of binding of PDBu to its receptor ([1]; concentration 0.4 nM): 1%

SMILES: CCCCCCCC/C=C\CCCCCCCC(=O)OCC(O)CO (centres unmarked) [1-Monoolein]
- Inhibition (%) of binding of PDBu to its receptor ([1]; concentration 0.4 nM): 21%
- Inhibition (%) of binding of PDBu to its receptor ([1]; concentration 0.8 nM): 63%

SMILES: CCCCCCCC/C=C\CCCCCCCC(=O)OCC(CO)OC(=O)CCCCCCC/C=C\CCCCCCCC (centres unmarked) [1,2-Diolein]
- Inhibition (%) of binding of PDBu to its receptor ([1]; concentration 0.8 nM): 20%

SMILES: CCCCC/C=C\C/C=C\CCCCCCCC(=O)OCC(O)COC(=O)CCCCCCC/C=C\C/C=C\CCCCC [1,3-Dilinolein]
- Inhibition (%) of binding of PDBu to its receptor ([1]; concentration 0.8 nM): 15%

SMILES: CC/C=C\C/C=C\C/C=C\CCCCCCCC(=O)OCC(O)CO (centres unmarked) [1-Monolinolenin]
- Inhibition (%) of binding of PDBu to its receptor ([1]; concentration 0.2 nM): 27%
- Inhibition (%) of binding of PDBu to its receptor ([1]; concentration 0.4 nM): 74%
- Inhibition (%) of binding of PDBu to its receptor ([1]; concentration 0.8 nM): 94%

Second part, led by results:

- Inhibition (%) of binding of PDBu to its receptor ([1]; concentration 0.8 nM, 0.0008 µM): -6% and -15%
SMILES: CCCCCCCCCCCCCCCC(=O)OCC(O)CO (centres unmarked) [1-Monopalmitin]

- Inhibition (%) of binding of PDBu to its receptor ([1]; concentration 0.4 nM): 36%
- Inhibition (%) of binding of PDBu to its receptor ([1]; concentration 0.8 nM): 82%
SMILES: CCCCCC/C=C\CCCCCCCC(=O)OCC(O)CO (centres unmarked) [1-Monopalmitolein]
- Stimulation of arachidonic acid cascade (release of radioactivity into the medium) [2]: stimulate the arachidonic acid cascade
- Competition with phorbol dibutyrate for its receptor (qualitative) [1]: compete with phorbol dibutyrate for its receptor

- Inhibition (%) of binding of PDBu to its receptor ([1]; concentration 0.4 nM): -11%
- Inhibition (%) of binding of PDBu to its receptor ([1]; concentration 0.8 nM): -8%
SMILES: CCCCCCCCCCCCCCCC(=O)OCC(COC(=O)CCCCCCCCCCCCCCC)OC(=O)CCCCCCCCCCCCCCC [Tripalmitin]

- Inhibition (%) of binding of PDBu to its receptor ([1]; concentration 0.4 nM): 10%
- Inhibition (%) of binding of PDBu to its receptor ([1]; concentration 0.8 nM): 15%
SMILES: CCCCC/C=C\C/C=C\CCCCCCCC(=O)O [Linoleic acid-Na]

- Inhibition (%) of binding of PDBu to its receptor ([1]; concentration 0.2 nM): 39%
- Inhibition (%) of binding of PDBu to its receptor ([1]; concentration 0.4 nM): 82%
- Inhibition (%) of binding of PDBu to its receptor ([1]; concentration 0.8 nM): 94%
SMILES: CCCCC/C=C\C/C=C\CCCCCCCC(=O)OC[C@@H](O)CO [1-Monolinolein]
- Stimulation of arachidonic acid cascade (release of radioactivity into the medium) ([2]; listed as 1-monolinolein): stimulate the arachidonic acid cascade
- Stimulation of arachidonic acid cascade (release of radioactivity into the medium) ([2]; listed as monolinolein): activated the arachidonic acid cascade
- Competition with phorbol dibutyrate for its receptor (qualitative) [1]: compete with phorbol dibutyrate for its receptor

- Inhibition (%) of binding of PDBu to its receptor ([1]; concentration 0.4 nM): 0%
SMILES: CCCCCCCCCCCCCC(=O)OCC(O)CO (centres unmarked) [1-Monomyristin]

- Inhibition (%) of binding of PDBu to its receptor ([1]; concentration 0.4 nM): 15%
SMILES: CCCCCCCCCCCCCC(=O)OCC(COC(=O)CCCCCCCCCCCCC)OC(=O)CCCCCCCCCCCCC [Trimystrin]

- Inhibition (%) of binding of PDBu to its receptor ([1]; concentration 0.4 nM): 11%
SMILES: CCCCCCCCCCCC(=O)OCC(COC(=O)CCCCCCCCCCC)OC(=O)CCCCCCCCCCC [Trilaurin]

- Inhibition (%) of binding of PDBu to its receptor ([1]; concentration 0.8 nM): -1%
SMILES: CCCCC/C=C\C/C=C\CCCCCCCC(=O)OCC(COC(=O)CCCCCCC/C=C\C/C=C\CCCCC)OC(=O)CCCCCCC/C=C\C/C=C\CCCCC [Trilinolein]

- Inhibition (%) of binding of PDBu to its receptor ([1]; concentration 0.4 nM): 0%
SMILES: OCC(O)CO [Glycerol]
